Data from PubChem BioAssay (NCI).
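Exposure lasted 48 hours, with cells grown in 96-well plates and compounds tested at five concentrations. GI50: concentration for 50% inhibition of growth. TGI marks complete inhibition of growth.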

Tests used:
Experiment in all cases: NCI tumour cell line growth inhibition, 48 h
SR leukemia = system: SR leukemia
TK-10 renal = system: TK-10 renal
MCF7 breast = system: MCF7 breast
T-47D breast = system: T-47D breast
UACC-62 melanoma = system: UACC-62 melanoma
NCI-H460 lung = system: NCI-H460 lung
NCI/ADR-RES ovarian = system: NCI/ADR-RES ovarian
RXF 393 renal = system: RXF 393 renal
COLO 205 colon = system: COLO 205 colon
HOP-62 NSCLC = system: HOP-62 NSCLC
SN12C renal = system: SN12C renal
U251 CNS = system: U251 CNS
MALME-3M melanoma = system: MALME-3M melanoma
HCT-116 colon = system: HCT-116 colon
OVCAR-3 ovarian = system: OVCAR-3 ovarian
SK-OV-3 ovarian = system: SK-OV-3 ovarian
UO-31 renal = system: UO-31 renal
KM12 colon = system: KM12 colon
MDA-MB-435 = system: MDA-MB-435
SK-MEL-28 melanoma = system: SK-MEL-28 melanoma
RPMI-8226 leukemia = system: RPMI-8226 leukemia
HS 578T breast = system: HS 578T breast
NCI-H23 lung = system: NCI-H23 lung
BT-549 breast = system: BT-549 breast
HOP-92 NSCLC = system: HOP-92 NSCLC
OVCAR-4 ovarian = system: OVCAR-4 ovarian
HT29 colon = system: HT29 colon
SF-539 CNS = system: SF-539 CNS
SNB-19 CNS = system: SNB-19 CNS
HCC-2998 colon = system: HCC-2998 colon
HL-60(TB) leukemia = system: HL-60(TB) leukemia
SW-620 colon = system: SW-620 colon
A498 renal = system: A498 renal
M14 melanoma = system: M14 melanoma
CCRF-CEM leukemia = system: CCRF-CEM leukemia
EKVX NSCLC = system: EKVX NSCLC
OVCAR-5 ovarian = system: OVCAR-5 ovarian
SF-268 CNS = system: SF-268 CNS
DU-145 prostate = system: DU-145 prostate
HCT-15 colon = system: HCT-15 colon
IGROV1 ovarian = system: IGROV1 ovarian
SF-295 CNS = system: SF-295 CNS
LOX IMVI melanoma = system: LOX IMVI melanoma
CAKI-1 renal = system: CAKI-1 renal
786-0 renal = system: 786-0 renal
K-562 leukemia = system: K-562 leukemia
ACHN renal = system: ACHN renal
MDA-MB-231 breast = system: MDA-MB-231 breast
A549 NSCLC = system: A549 NSCLC
MOLT-4 leukemia = system: MOLT-4 leukemia
PC-3 prostate = system: PC-3 prostate

CCCCCCCCCCCCCCCCn1cc[n+](C)c1
GI50 (SR leukemia): 74.2 nM
TGI (SR leukemia): 787 nM
GI50 (TK-10 renal): 254 nM
TGI (TK-10 renal): 929 nM
GI50 (MCF7 breast): 367 nM
TGI (MCF7 breast): 1520 nM
GI50 (T-47D breast): 398 nM
GI50 (UACC-62 melanoma): 538 nM
TGI (UACC-62 melanoma): 1880 nM
GI50 (NCI-H460 lung): 486 nM
TGI (NCI-H460 lung): 1830 nM
GI50 (NCI/ADR-RES ovarian): 1950 nM
TGI (NCI/ADR-RES ovarian): 18400 nM
GI50 (RXF 393 renal): 252 nM
TGI (RXF 393 renal): 907 nM
GI50 (COLO 205 colon): 270 nM
GI50 (HOP-62 NSCLC): 443 nM
TGI (HOP-62 NSCLC): 1730 nM
GI50 (SN12C renal): 667 nM
TGI (SN12C renal): 1890 nM
GI50 (U251 CNS): 356 nM
TGI (U251 CNS): 1530 nM
GI50 (MALME-3M melanoma): 357 nM
TGI (MALME-3M melanoma): 1510 nM
GI50 (HCT-116 colon): 267 nM
TGI (HCT-116 colon): 1220 nM
GI50 (OVCAR-3 ovarian): 286 nM
TGI (OVCAR-3 ovarian): 1020 nM
GI50 (SK-OV-3 ovarian): 941 nM
TGI (SK-OV-3 ovarian): 3170 nM
GI50 (UO-31 renal): 1040 nM
TGI (UO-31 renal): 2240 nM
GI50 (KM12 colon): 264 nM
TGI (KM12 colon): 756 nM
GI50 (MDA-MB-435): 358 nM
TGI (MDA-MB-435): 1490 nM
GI50 (SK-MEL-28 melanoma): 707 nM
TGI (SK-MEL-28 melanoma): 2050 nM
GI50 (RPMI-8226 leukemia): 24 nM
TGI (RPMI-8226 leukemia): 190 nM
GI50 (HS 578T breast): 383 nM
TGI (HS 578T breast): 1750 nM
GI50 (NCI-H23 lung): 287 nM
TGI (NCI-H23 lung): 1870 nM
GI50 (BT-549 breast): 444 nM
TGI (BT-549 breast): 1610 nM
GI50 (HOP-92 NSCLC): 340 nM
TGI (HOP-92 NSCLC): 1680 nM
GI50 (OVCAR-4 ovarian): 372 nM
TGI (OVCAR-4 ovarian): 17800 nM
GI50 (HT29 colon): 291 nM
TGI (HT29 colon): 1250 nM
GI50 (SF-539 CNS): 1160 nM
TGI (SF-539 CNS): 2380 nM
GI50 (SNB-19 CNS): 705 nM
TGI (SNB-19 CNS): 2000 nM
GI50 (HCC-2998 colon): 277 nM
TGI (HCC-2998 colon): 1130 nM
GI50 (HL-60(TB) leukemia): 129 nM
TGI (HL-60(TB) leukemia): 321 nM
GI50 (SW-620 colon): 468 nM
TGI (SW-620 colon): 1780 nM
GI50 (A498 renal): 109 nM
TGI (A498 renal): 760 nM
GI50 (M14 melanoma): 268 nM
TGI (M14 melanoma): 1300 nM
GI50 (CCRF-CEM leukemia): 139 nM
TGI (CCRF-CEM leukemia): 512 nM
GI50 (EKVX NSCLC): 422 nM
TGI (EKVX NSCLC): 1960 nM
GI50 (OVCAR-5 ovarian): 329 nM
TGI (OVCAR-5 ovarian): 1640 nM
GI50 (SF-268 CNS): 837 nM
TGI (SF-268 CNS): 2120 nM
GI50 (DU-145 prostate): 651 nM
TGI (DU-145 prostate): 1940 nM
GI50 (HCT-15 colon): 989 nM
TGI (HCT-15 colon): 2150 nM
GI50 (IGROV1 ovarian): 201 nM
TGI (IGROV1 ovarian): 517 nM
GI50 (SF-295 CNS): 318 nM
TGI (SF-295 CNS): 1430 nM
GI50 (LOX IMVI melanoma): 412 nM
TGI (LOX IMVI melanoma): 1640 nM
GI50 (CAKI-1 renal): 385 nM
TGI (CAKI-1 renal): 2330 nM
GI50 (786-0 renal): 500 nM
TGI (786-0 renal): 1910 nM
GI50 (K-562 leukemia): 131 nM
TGI (K-562 leukemia): 1130 nM
GI50 (ACHN renal): 613 nM
TGI (ACHN renal): 2010 nM
GI50 (MDA-MB-231 breast): 814 nM
TGI (MDA-MB-231 breast): 2230 nM
GI50 (A549 NSCLC): 326 nM
TGI (A549 NSCLC): 1600 nM
GI50 (MOLT-4 leukemia): 306 nM
TGI (MOLT-4 leukemia): 1500 nM
GI50 (PC-3 prostate): 183 nM
TGI (PC-3 prostate): 580 nM
